This is an account of results in patent US20080026447A1, “Assay for determining factor viia inhibitor concentration in plasma samples” (Bristol-Myers Squibb Company, priority 2006, published 2008).

The target in data set [1] is T1, factor VIIa (Homo sapiens, UniProt P08709).
T1 construct: proteolytic cleavage of factor X to factor Xa, factor IX to factor IXa and additional factor VII to factor VIIa
Nature of the data set: Factor VIIa substrate hydrolysis (amidolytic activity) in factor X deficient plasma. It counts as biochemical. The note with it: 1 μM inhibitor, 85% factor X deficient plasma, 0.5 nM factor VIIa, D-Ile-Pro-Arg-AFC, FIG. 2. The protocol: The assay was carried out in a fluorescence plate reader at room temperature. factor VIIa substrate hydrolysis (amidolytic activity on the substrate) was monitored for 30 minutes at an excitation wavelength of 400 nm and an emission wavelength of 535 nm. […] Such interference is primarily due to hydrolysis of the relatively nonspecific peptide substrate by downstream proteases such as factor Xa and thrombin.

Data set [2] in a line: Binding of factor VIIa inhibitor to plasma proteins (shift in IC50, buffer vs plasma). The note with it: pH 7.5, probe D-Ile-Pro-Arg-AFC (fluorogenic factor VIIa substrate); factor X deficient human plasma; 1-IC50 in buffer/IC50 in plasma; read-out: Protein binding (converted). It counts as in vitro ADME. An excerpt: Some embodiments of the present invention provide methods for determining the plasma protein binding affinity of a factor VIIa inhibitor for other plasma proteins. Factor VIIa inhibitors having low plasma protein binding affinity for plasma proteins other than factor VIIa are preferred because more unbound factor VIIa inhibitor is available to bind and inhibit factor VIIa. The term “low protein binding factor VIIa inhibitor” as used herein means, a factor VIIa inhibitor that decreases the activity of factor VIIa in the presence or absence of other plasma proteins. […] The fraction of inhibitor bound to plasma protein is calculated by 1-IC50 in buffer/IC50 in plasma.
Protein binding of the inhibitor 2-(1-aminoisoquinolin-6-ylamino)-2-(3-ethoxy-4-isopropoxyphenyl)-N-(4-hydroxyphenylsulfonyl)acetamide was determined by measuring factor VIIa inhibition by the test inhibitor in buffer and then in factor X deficient human plasma. […] The assay was carried out in a fluorescence plate reader at room temperature at an excitation wavelength of 400 nm and an emission wavelength of 535 nm. The fraction of the inhibitor bound to plasma protein was calculated according to the following formula: 1-IC50 in buffer/IC50 in plasma. […] Protein binding of 2-(1-aminoisoquinolin-6-ylamino)-2-(3-ethoxy-4-isopropoxyphenyl)-N-(4-hydroxyphenylsulfonyl)acetamide was determined to be 99.2%.

For data set [3], the target named is T1, factor VIIa. The data set can be described thus: Factor VIIa inhibition in buffer and in factor X deficient human plasma. It counts as biochemical. Particulars: 2.5 nM factor VIIa, FIG. 5. The protocol:
Protein binding of the inhibitor 2-(1-aminoisoquinolin-6-ylamino)-2-(3-ethoxy-4-isopropoxyphenyl)-N-(4-hydroxyphenylsulfonyl)acetamide was determined by measuring factor VIIa inhibition by the test inhibitor in buffer and then in factor X deficient human plasma. […] In FIG. 5, one set of samples contained 2.5 nM factor VIIa, 28 nM soluble tissue factor, 10 mM CaCl2 100 nM D-Ile-Pro-Arg-AFC and varying concentrations of factor VIIa inhibitor 2-(1-aminoisoquinolin-6-ylamino)-2-(3-ethoxy-4-isopropoxyphenyl)-N-(4-hydroxyphenylsulfonyl)acetamide (Compound B). The second sample set was identical to the first set with the addition of 90% factor X deficient plasma. All samples were diluted in 50 mM HEPES pH 7.5, 150 mM NaCl, 0.1% polyethyleneglycol 8000 and 0.1% bovine serum albumin. The assay was carried out in a fluorescence plate reader at room temperature at an excitation wavelength of 400 nm and an emission wavelength of 535 nm. The fraction of the inhibitor bound to plasma protein was calculated according to the following formula: 1-IC50 in buffer/IC50 in plasma. […] Protein binding of 2-(1-aminoisoquinolin-6-ylamino)-2-(3-ethoxy-4-isopropoxyphenyl)-N-(4-hydroxyphenylsulfonyl)acetamide was determined to be 99.2%.

A short description of data set [4]: Factor VIIa inhibitor concentration in plasma samples from dosed rabbits (functional assay). It counts as in vivo. Particulars: sample B6, plasma from dosed rabbit; IC50 of standard curve × plasma dilution factor giving 50% inhibition. The protocol:
Plasma was prepared from tested blood samples drawn from rabbits dosed with (R)-N-(5-acetamido-2-(ethylsulfonyl)benzyl)-2-(1-aminoisoquinolin-6-ylamino)-2-(3,4-dimethoxyphenyl)acetamide (Compound C) into buffered citrate. The samples were diluted and combined with tissue factor, factor VIIa, Ca^++, factor Xa inhibitor 2-(3-Aminomethyl-phenyl)-5-trifluoromethyl-2H-pyrazole-3-carboxylic acid (3-fluoro-2′-methanesulfonyl-biphenyl-4-yl)-amide and fluorogenic factor VIIa substrate D-Ile-Pro-Arg-AFC. The inhibitory activity of the tested sample was measured by monitoring the fluorescence of the D-Ile-Pro-Arg-AFC product and comparing the activity to standard curve constructed with plasma from an undosed rabbit spiked with known concentrations of the (R)-N-(5-acetamido-2-(ethylsulfonyl)benzyl)-2-(1-aminoisoquinolin-6-ylamino)-2-(3,4-dimethoxyphenyl)acetamide. […] The assay was carried out in a fluorescent plate reader at room temperature at an excitation wavelength of 400 nm and an emission wavelength of 535 nm. […] IC50 of the standard curve was calculated using floating top and bottom to account for the background signal not originating from factor VIIa activity. […] The concentration of (R)-N-(5-acetamido-2-(ethylsulfonyl)benzyl)-2-(1-aminoisoquinolin-6-ylamino)-2-(3,4-dimethoxyphenyl)acetamide present in sample B6 was calculated to be 338.5 nM. […]

Each structure is given as a SMILES string. pIC50: −log10 of the molar value. Where two headings read alike, the source gives them in different places.

T1 sequence (P08709 61-212 limits assumed): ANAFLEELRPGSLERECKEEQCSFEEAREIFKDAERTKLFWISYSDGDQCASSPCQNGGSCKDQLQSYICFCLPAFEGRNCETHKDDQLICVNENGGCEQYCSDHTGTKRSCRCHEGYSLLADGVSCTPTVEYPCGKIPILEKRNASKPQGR
T1 sequence (P08709 213-466 limits assumed): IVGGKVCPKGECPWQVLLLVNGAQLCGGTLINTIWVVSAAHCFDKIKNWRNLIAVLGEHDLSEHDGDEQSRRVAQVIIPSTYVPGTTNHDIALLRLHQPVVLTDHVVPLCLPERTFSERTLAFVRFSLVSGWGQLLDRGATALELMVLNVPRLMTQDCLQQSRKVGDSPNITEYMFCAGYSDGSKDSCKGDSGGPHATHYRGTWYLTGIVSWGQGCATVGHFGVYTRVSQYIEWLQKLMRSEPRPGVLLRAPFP
T1 sequence (P13726 with tags, fused parts or gaps partner limits assumed): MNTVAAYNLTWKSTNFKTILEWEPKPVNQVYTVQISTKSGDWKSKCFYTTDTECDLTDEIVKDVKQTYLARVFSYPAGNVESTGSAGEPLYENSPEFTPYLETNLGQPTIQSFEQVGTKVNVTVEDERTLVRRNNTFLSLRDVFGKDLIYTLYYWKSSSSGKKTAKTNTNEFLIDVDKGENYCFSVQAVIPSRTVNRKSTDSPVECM

With `COc1cc([C@@H]2Nc3ccc(C(=N)N)cc3[C@H]3c4ccccc4C[C@H]32)c(-c2ccc(C(=O)O)cc2)cc1O` [2′-((6R,6aR,11bR)-2-carbamimidoyl-6,6a,7,11b-tetrahydro-5H-indeno[2,1-c]quinolin-6-yl)-5′-hydroxy-4′-methoxybiphenyl-4-carboxylic acid], the “inhibition of amidolytic activity in factor X deficient plasma” value on factor VIIa [1] is listed as “most of it is inhibited”.
By pIC50 is commonly meant the negative decadic logarithm of the IC50, by convention in mol/L. For `CCOc1cc(C(Nc2ccc3c(N)nccc3c2)C(=O)NS(=O)(=O)c2ccc(O)cc2)ccc1OC(C)C` (centres unmarked) [Compound B, 2-(1-aminoisoquinolin-6-ylamino)-2-(3-ethoxy-4-isopropoxyphenyl)-N-(4-hydroxyphenylsulfonyl)acetamide], the fraction unbound in data set [2] is 0.008. Besides, the pIC50 was 5.48 at factor VIIa [3] (90% factor X deficient plasma, read-out: IC50 in plasma) and 7.59 at factor VIIa [3] (buffer without plasma, read-out: IC50 in buffer).
Consider `CCS(=O)(=O)c1ccc(NC(C)=O)cc1CNC(=O)[C@H](Nc1ccc2c(N)nccc2c1)c1ccc(OC)c(OC)c1` [Compound C, (R)-N-(5-acetamido-2-(ethylsulfonyl)benzyl)-2-(1-aminoisoquinolin-6-ylamino)-2-(3,4-dimethoxyphenyl)acetamide], for which, in data set [4], the “concentration present in plasma sample” value came out at 338.5 nM.
